In patent US20070112015A1, “Substituted dihydropyridines and methods of use” (ChemoCentryx, Inc., priority 2005, published 2007):
pIC50: −log10 of the molar value.

What follows are compounds tested against T1, human C5a receptor (Homo sapiens, UniProt P21730) (assay: Inhibition of C5aR ligand binding (125I labeled C5a)). Conditions: 125I labeled C5a binding to C5aR expressing cells (L1.2 C5aR cells or neutrophils).
T1 construct: expressed in transfected cells; alternatively isolated human neutrophils (endogenous receptor)
T1 sequence (P21730 1-350): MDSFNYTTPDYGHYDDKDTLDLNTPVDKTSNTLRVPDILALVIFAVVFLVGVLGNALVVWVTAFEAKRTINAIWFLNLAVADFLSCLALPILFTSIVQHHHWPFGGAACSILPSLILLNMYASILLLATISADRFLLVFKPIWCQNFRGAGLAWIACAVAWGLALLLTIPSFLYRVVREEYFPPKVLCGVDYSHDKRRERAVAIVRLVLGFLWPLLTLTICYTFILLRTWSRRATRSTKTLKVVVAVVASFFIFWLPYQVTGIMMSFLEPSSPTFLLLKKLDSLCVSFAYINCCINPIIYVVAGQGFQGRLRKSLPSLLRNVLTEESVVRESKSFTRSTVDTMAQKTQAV
Description: L1.2 cells (ATCC #HB-12624) were transfected with a mammalian expression vector constitutively expressing the human C5a receptor (Genbank accession # NM_001736). A stable cell line was produced by selection with G418 for the co-expressed resistance marker. These cells were cultured as a suspension in RPMI-1640 medium supplemented with 2 mM L-glutamine, 1.5 g/L sodium bicarbonate, 4.5 g/L glucose, 10 mM HEPES, 1 mM sodium pyruvate, and 10% FBS. Cells were grown under 5% CO2/95% air, 100% humidity at 37° C. and subcultured twice weekly at 1:6 (cells were cultured at a density range of 1×10^5 to 2×10^6 cells/mL) and harvested at 1×10^6 cells/mL. L1.2 C5aR cells express C5a receptor and can be used in C5aR ligand binding and functional assays.
Neutrophils were isolated from fresh human blood using density separation and centrifigation. Briefly, whole blood is incubated with equal parts 3% dextran and allowed to separate for 45 minutes. After separation, the top layer is then layered on top of 15 mls of Ficoll (15 mls of Ficoll for every 30 mls of blood suspension) and centrifuged for 30 minutes at 400×g with no brake. The pellet at the bottom of the tube is then isolated and resuspended into PharmLyse RBC Lysis Buffer (BD Biosciences, San Jose, Calif.) after which the sample is again centrifuged for 10 minutes at 400×g with brake. The remaining cell pellet is resuspended as appropriate and consists of isolated neutrophils.
C5aR expressing cells were centrifuged and resuspended in assay buffer (20 mM HEPES pH 7.1, 140 mM NaCl, 1 mM CaCl2, 5 mM MgCl2, and with 0.2% bovine serum albumin) to a concentration of 5×10^6 cells/mL for L1.2 C5aR cells and […]. Binding assays were set up as follows. 0.1 mL of cells (5×10^5 L1.2 C5aR cells/well or 1×10^5 neutrophils) was added to the assay plates containing the compounds, giving a final concentration of ˜2-10 μM each compound for screening (or part of a dose response for compound IC50 determinations). Then 0.1 mL of ^125I labeled C5a (obtained from Perkin Elmer Life Sciences, Boston, Mass.) diluted in assay buffer to a final concentration of ˜50 pM, yielding ˜30,000 cpm per well, was added (using ^125I labeled C5a with L1.2 C5aR cells and with neutrophils), the plates sealed and incubated for approximately 3 hours at 4° C. on a shaker platform. Reactions were aspirated onto GF/B glass filters pre-soaked in 0.3% polyethyleneimine (PEI) solution, on a vacuum cell harvester (Packard Instruments; Meriden, Conn.). Scintillation fluid (40 μl; Microscint 20, Packard Instruments) was added to each well, the plates were sealed and radioactivity measured in a Topcount scintillation counter (Packard Instruments). Control wells containing either diluent only (for total counts) or excess C5a (1 µg/mL, for non-specific binding) were used to calculate the percent of total inhibition for compound. The computer program Prism from GraphPad, Inc. (San Diego, Calif.) was used to calculate IC50 values. IC50 values are those concentrations required to reduce the binding of radiolabeled C5a to the receptor by 50%. (For further descriptions of ligand binding and other functional assays, see Dairaghi, et al., J. Biol. Chem. 274:21569-21574 (1999), Penfold, et al., Proc. Natl. Acad. Sci. USA. 96:9839-9844 (1999), and Dairaghi, et al, J. Biol. Chem. 272:28206-28209 (1997)).
To evaluate small organic molecules that prevent the C5a receptor from binding ligand, an assay was employed that detected radioactive ligand (i.e, C5a) binding to cells expressing C5aR on the cell surface (for example, L1.2 C5AR cells or isolated human neutrophils). For compounds that inhibited binding, whether competitive or not, fewer radioactive counts are observed when compared to uninhibited controls.
Equal numbers of cells were added to each well in the plate. The cells were then incubated with radiolabeled C5a. Unbound ligand was removed by washing the cells, and bound ligand was determined by quantifying radioactive counts. […]
In the case of `CC1=C(C(=O)OC2CCCC2)C(c2cccc(O)c2)C2=C(CC(C3CCCCC3)CC2=O)N1` (stereo not shown) [Compound 1.004], the pIC50 was > 6.00.
`CC(C)C1=C(C(=O)OC2CCCC2)C(c2cccc(O)c2)C2=C(CC(c3c(Cl)cncc3Cl)CC2=O)N1` (stereo not shown) [Compound 1.010] gave a pIC50 of 5.00 to 6.00.
Compound `CC1=C(C(=O)OC2CCCC2)C(c2cccc(O)c2)C2=C(CC(c3ccc(-c4ccccc4)cc3)CC2=O)N1` (stereo not shown) [Compound 1.005] has a pIC50 of 5.00 to 6.00.
For `CC1=C(C(=O)OC2CCCC2)C(c2cccc(O)c2)C2=C(CC(c3ccc(C(F)(F)F)cc3)CC2=O)N1` (stereo not shown) [Compound 1.003], the pIC50 was > 6.00.
With `CCOC(=O)C1=C(CCC2CCCC2)NC2=C(C(=O)CC(c3c(C)cc(C)cc3C)C2)C1c1cccc2[nH]ccc12` (stereo not shown) [Compound 1.008] the pIC50 was > 6.00.
`O=C1CC(c2ccc3c(c2)OCO3)CC2=C1C(c1cccc(O)c1)C(C(=O)OC1CCCC1)=C(CC1CCCC1)N2` (stereo not shown) [Compound 1.009] was tested, and the pIC50 was > 6.00.
With `CC1=C(C(=O)OC2CCCC2)C(c2cccc(O)c2)C2=C(CC(c3ccc(C)c(F)c3)CC2=O)N1` (stereo not shown) [Compound 1.002] the pIC50 was > 6.00.
With `CC1=C(C(=O)OC2CCCC2)C(c2cccc(O)c2)C2=C(CC(c3ccc4ccccc4c3)CC2=O)N1` (stereo not shown) [Compound 1.006] the pIC50 was > 6.00.
`CC1=C(C(=O)OC2CCCC2)C(c2cccc(O)c2)C2=C(CN(c3ccccc3)CC2=O)N1` (stereo not shown) [Compound 1.007] was tested, and the pIC50 was 5.00 to 6.00.
`Cc1cc(C)c(C2CC(=O)C3=C(C2)NC(C2CC2)=C(C(=O)OC2CCCC2)C3c2cccc(O)c2)c(C)c1` (stereo not shown) [Compound 1.001] was tested, and the pIC50 was > 6.00.
